Broadly, the melting point is the temperature, or range, at which the solid turns liquid.

One series concerns HCV replicon. Kind of series: microbe, parasite or virus in culture. The class given is cell-based. Conditions: Hepatitis C virus, 48 h.

Where two headings read alike, the source gives them in different places. A value given as a limit tells only on which side of the number the result lay.

`CCCOC(=O)Nc1ccc(-c2c(C#N)c3ccc(OC(F)F)cc3n2CC2CC2)cc1`: the melting point is 125 to 126 °C.
As to `CCn1c(-c2ccc3c(c2)OCO3)c(C#N)c2ccc(OC)cc21` [Compound 22], the melting point fell in the range of 146 to 149 °C. Besides, the IC50 in the series on HCV replicon (read-out: Replicon IC5Os μM) is 0.5 to 2 µM.
For `CCn1c(NC(=O)c2cccc(C)c2)c(C#N)c2ccc(OC)cc21` [Compound 23] the same measures were 234 to 235 °C and under 0.5 µM.
For the compound `CCn1c(NC(C)=O)c(C#N)c2ccc([N+](=O)[O-])cc21` [Compound 25, N-(3-cyano-1-ethyl-6-nitro-1H-indol-2-yl)acetamide], the melting point fell in the range of 291 to 293 °C. Also, the IC50 in the series with HCV replicon (read-out: Replicon IC5Os μM) is over 2 µM.
Regarding `COc1ccc(-n2cc(C(C)=O)c3ccc(OC)cc32)cc1` [Compound 48], the melting point is 138 to 142 °C. Also, the IC50 with HCV replicon (read-out: Replicon IC5Os μM) is 0.5 to 2 µM.
For the compound `CCn1c(C#Cc2ccc(N)cc2)c(C#N)c2ccc(OC)cc21` [Compound 69], the melting point is 163 to 166 °C. In addition, the IC50 with HCV replicon (read-out: Replicon IC5Os μM) was 0.5 to 2 µM.
In turn, `CCn1c(-c2ccc(NC(=O)C3CC3)cc2)c(C#N)c2ccc(OC)cc21` [Compound 81] returned a melting point of 209 to 211 °C. The IC50 in the series on HCV replicon (read-out: Replicon IC5Os μM) is under 0.5 µM.
In turn, `CCC(=O)Nc1ccc(C#Cc2c(C#N)c3ccc(OC)cc3n2CC)cc1` [Compound 82] registered a melting point of 223 to 228 °C. In the series with HCV replicon (read-out: Replicon IC5Os μM), the IC50 is 0.5 to 2 µM.
In turn, `CCCn1c(-c2ccc(NS(=O)(=O)CC)cc2)c(C#N)c2ccc(OC)cc21` [Compound 85] came in with a melting point of 163 to 165 °C. In addition, the IC50 with HCV replicon (read-out: Replicon IC5Os μM) is under 0.5 µM.
Take `CCS(=O)(=O)Nc1ccc(-c2c(C#N)c3ccc(OC)cc3n2C2CCC2)cc1` [Compound 86]: the melting point is 158 to 160 °C. The IC50 in the series with HCV replicon (read-out: Replicon IC5Os μM) is under 0.5 µM.
In the same order, the values of `CCn1c(-c2ccc(NS(=O)(=O)C(C)C)cc2)c(C#N)c2ccc(OC)cc21` [Compound 88] are 209 to 213 °C and 0.5 to 2 µM.
With `CCn1c(C#Cc2ccccc2)c(C#N)c2ccc(C(N)=O)cc21` [Compound 94], the melting point is 262 to 265 °C. In the series with HCV replicon (read-out: Replicon IC5Os μM), the IC50 lay in the range of 0.5 to 2 µM.
In the same order, the values of `CCn1c(C#Cc2cccc(OC)c2)c(C#N)c2ccc(C(N)=O)cc21` [Compound 95] are 248 to 251 °C and 0.5 to 2 µM.
For `CCn1c(C#Cc2ccc(N)cc2)c(C#N)c2ccc(C(N)=O)cc21` [Compound 96] the same measures were 243 to 250 °C and 0.5 to 2 µM.
Regarding `COc1ccc(-n2cc(C#N)c3ccc(Cl)cc32)cc1` [Compound 119], the melting point fell in the range of 126 to 128 °C. The IC50 in the series on HCV replicon (read-out: Replicon IC5Os μM) lay in the range of 0.5 to 2 µM.
Regarding `CCn1c(C#Cc2ccc(NS(=O)(=O)CC)cc2)c(C#N)c2ccc(OC)cc21` [Compound 131], the melting point is 199 to 204 °C. In addition, the IC50 with HCV replicon (read-out: Replicon IC5Os μM) lay in the range of 0.5 to 2 µM.
Turning to `CCn1c(C#Cc2ccc(NS(=O)(=O)C(C)C)cc2)c(C#N)c2ccc(OC)cc21` [Compound 132], the melting point is 209 to 212 °C. Besides, the IC50 in the series with HCV replicon (read-out: Replicon IC5Os μM) fell in the range of 0.5 to 2 µM.
Turning to `CCn1c(C#Cc2ccccc2Cl)c(C#N)c2ccc(OC)cc21` [Compound 134], the melting point was 155 to 157 °C. Moreover, the IC50 in the series with HCV replicon (read-out: Replicon IC5Os μM) fell in the range of 0.5 to 2 µM.
In turn, `CCn1c(C#Cc2ccc(NC(=O)COC)cc2)c(C#N)c2ccc(OC)cc21` [Compound 139] registered a melting point of 191 to 195 °C. For the same compound, the IC50 with HCV replicon (read-out: Replicon IC5Os μM) was 0.5 to 2 µM.
`CCn1c(C#Cc2cccc(C)c2)c(C#N)c2ccc(OC)cc21` [Compound 144] registered a melting point of 97 to 100 °C. In the series with HCV replicon (read-out: Replicon IC5Os μM), the IC50 fell in the range of 0.5 to 2 µM.
For the compound `CCn1c(C#Cc2ccc(C(C)(C)C)cc2)c(C#N)c2ccc(OC)cc21` [Compound 145], the melting point lay in the range of 110 to 113 °C. In the series on HCV replicon (read-out: Replicon IC5Os μM), the IC50 lay within 0.5 to 2 µM.
In the case of `CCn1c(C#Cc2ccc(NC(=O)C3CCC3)cc2)c(C#N)c2ccc(OC)cc21` [Compound 153], the melting point is 225 to 228 °C. Also, in the series on HCV replicon (read-out: Replicon IC5Os μM), the IC50 is 0.5 to 2 µM.
In turn, `CCn1c(C#Cc2ccc(CNS(=O)(=O)CC)cc2)c(C#N)c2ccc(OC)cc21` [Compound 157, Ethanesulfonic acid [4-(3-cyano-1-ethyl-6-methoxy-1H-indol-2-ylethynyl)-phenyl]methyl amide] returned a melting point of 149 to 153 °C.
The compound `CCn1c(C#Cc2ccc(CC#N)cc2)c(C#N)c2ccc(OC)cc21` [Compound 161] gave a melting point of 174 to 176 °C. Moreover, the IC50 in the series on HCV replicon (read-out: Replicon IC5Os μM) fell in the range of 0.5 to 2 µM.
For `CCn1c(C#Cc2ccc(O)cc2)c(C#N)c2ccc(OC)cc21` [Compound 172] the same measures were 221 to 223 °C and 0.5 to 2 µM.
`CCn1c(C#Cc2cccc(N)c2)c(C#N)c2ccc(OC)cc21` [Compound 173]: the melting point fell in the range of 150 to 153 °C. For the same compound, the IC50 with HCV replicon (read-out: Replicon IC5Os μM) lay in the range of 0.5 to 2 µM.
Regarding `CCn1c(C#Cc2ccc3c(c2)OCCO3)c(C#N)c2ccc(OC)cc21` [Compound 175], the melting point was in the range of 132 to 135 °C. For the same compound, in the series on HCV replicon (read-out: Replicon IC5Os μM), the IC50 lay in the range of 0.5 to 2 µM.
In the same order, the values of `CCn1c(C#Cc2ccc(C(F)(F)F)cc2)c(C#N)c2ccc(O)cc21` [Compound 185] are 157 to 160 °C and 0.5 to 2 µM.
`CCn1c(C#Cc2ccccc2)c(C#N)c2ccc(O)cc21` [Compound 188] had a melting point of 209 to 212 °C. The IC50 in the series on HCV replicon (read-out: Replicon IC5Os μM) lay in the range of 0.5 to 2 µM.
Regarding `CCn1c(C#Cc2cccc(O)c2)c(C#N)c2ccc(C(F)(F)F)cc21` [Compound 196], the melting point lay in the range of 187 to 189 °C. In the series on HCV replicon (read-out: Replicon IC5Os μM), the IC50 is 0.5 to 2 µM.
For the compound `CCn1c(C#Cc2ccc(N)cc2)c(C#N)c2ccc(C(F)(F)F)cc21` [Compound 200], the melting point is 187 to 189 °C. Besides, the IC50 in the series on HCV replicon (read-out: Replicon IC5Os μM) lay within 0.5 to 2 µM.
With `CCn1c(C#Cc2ccc(N(C)C)cc2)c(C#N)c2ccc(C(F)(F)F)cc21` [Compound 201], the melting point fell in the range of 147 to 150 °C. Moreover, the IC50 in the series with HCV replicon (read-out: Replicon IC5Os μM) lay within 0.5 to 2 µM.
`CCn1c(C#Cc2cccc(NC(C)=O)c2)c(C#N)c2ccc(OC)cc21` [Compound 205] had a melting point of 181 to 184 °C. The IC50 with HCV replicon (read-out: Replicon IC5Os μM) lay within 0.5 to 2 µM.
Compound `CCC(=O)Nc1cccc(C#Cc2c(C#N)c3ccc(OC)cc3n2CC)c1` [Compound 206] yielded a melting point of 187 to 191 °C. Also, the IC50 in the series on HCV replicon (read-out: Replicon IC5Os μM) was in the range of 0.5 to 2 µM.
In the case of `CCn1c(C#Cc2cccc(NC(=O)C(C)C)c2)c(C#N)c2ccc(OC)cc21` [Compound 207], the melting point fell in the range of 179 to 183 °C. In addition, in the series on HCV replicon (read-out: Replicon IC5Os μM), the IC50 is 0.5 to 2 µM.
With `CCn1c(C#Cc2cccc(NC(=O)C3CC3)c2)c(C#N)c2ccc(OC)cc21` [Compound 211], the melting point is 186 to 191 °C. Further, the IC50 with HCV replicon (read-out: Replicon IC5Os μM) was in the range of 0.5 to 2 µM.
In the case of `CCn1c(C#Cc2cccc(NC(=O)C3CCC3)c2)c(C#N)c2ccc(OC)cc21` [Compound 213], the melting point fell in the range of 165 to 168 °C. Further, the IC50 in the series on HCV replicon (read-out: Replicon IC5Os μM) lay in the range of 0.5 to 2 µM.
For `CCn1c(NC(=O)C2CC2)c(C#N)c2ccc(OC)cc21` [Compound 216] the same measures were 261 °C and 0.5 to 2 µM.
`CCn1c(NC(=O)OCC(C)C)c(C#N)c2ccc(OC)cc21` [Compound 217] registered a melting point of 272 to 273 °C. The IC50 with HCV replicon (read-out: Replicon IC5Os μM) is under 0.5 µM.
In the same order, the values of `CCn1c(C#Cc2cccc(NC=O)c2)c(C#N)c2ccc(OC)cc21` [Compound 218] are 174 to 177 °C and 0.5 to 2 µM.
For the compound `CCn1c(C#Cc2cccc(NC(=O)COC)c2)c(C#N)c2ccc(OC)cc21` [Compound 219], the melting point was 145 to 149 °C. In addition, the IC50 in the series with HCV replicon (read-out: Replicon IC5Os μM) fell in the range of 0.5 to 2 µM.
In the same order, the values of `CCn1c(C#Cc2cccc(NC(=O)NCCCl)c2)c(C#N)c2ccc(OC)cc21` [Compound 221] are 195 to 200 °C and 0.5 to 2 µM.
As to `COc1ccc2c(C#N)c(C#Cc3ccc(C(C)(C)C)cc3)[nH]c2c1` [Compound 233], the melting point was 232 to 234 °C. For the same compound, the IC50 in the series on HCV replicon (read-out: Replicon IC5Os μM) was in the range of 0.5 to 2 µM.
The compound `CCn1c(-c2ccc(NS(C)(=O)=O)cc2)c(C#N)c2cc(OC)ccc21` [Compound 243] displayed a melting point of 194 to 198 °C. Also, the IC50 in the series with HCV replicon (read-out: Replicon IC5Os μM) is under 0.5 µM.
The compound `CCCS(=O)(=O)Nc1ccc(-c2c(C#N)c3ccc(OC)cc3n2CC)cc1` [Compound 251] displayed a melting point of 186 to 187 °C. In addition, in the series on HCV replicon (read-out: Replicon IC5Os μM), the IC50 fell in the range of 0.5 to 2 µM.
Regarding `CCn1c(-c2ccc(NS(=O)(=O)CCCCl)cc2)c(C#N)c2ccc(OC)cc21` [Compound 252], the melting point is 176 to 177 °C. Also, the IC50 in the series on HCV replicon (read-out: Replicon IC5Os μM) lay within 0.5 to 2 µM.
For `CCn1c(-c2ccc(OCCNS(=O)(=O)CC)cc2)c(C#N)c2ccc(OC)cc21` [Compound 269] the same measures were 153 to 158 °C and 0.5 to 2 µM.
Compound `CCn1c(-c2cccc(S(=O)(=O)NC)c2)c(C#N)c2ccc(OC)cc21` [Compound 331] gave a melting point of 160 to 165 °C. Also, in the series with HCV replicon (read-out: Replicon IC5Os), the IC50 is 0.5 to 2 µM.
In turn, `CCn1c(-c2ccc3c(c2)oc(=O)n3C)c(C#N)c2ccc(OC)cc21` [Compound 341] gave a melting point of 227 to 230 °C. Besides, the IC50 in the series on HCV replicon (read-out: Replicon IC5Os) was in the range of 0.5 to 2 µM.
`CCS(=O)(=O)Nc1ccc(-c2c(C#N)c3ccc(OC)cc3n2C)cc1` [Compound 345] came in with a melting point of 191 to 192 °C. In the series on HCV replicon (read-out: Replicon IC5Os), the IC50 fell in the range of 0.5 to 2 µM.
In turn, `CCCn1c(-c2ccc(NS(C)(=O)=O)cc2)c(C#N)c2ccc(OC)cc21` [Compound 346] showed a melting point of 178 to 180 °C. Further, the IC50 with HCV replicon (read-out: Replicon IC5Os) was under 0.5 µM.
As to `CCn1c(-c2ccc(NS(=O)(=O)CC)cc2)c(C#N)c2ccc(C(F)(F)F)cc21` [Compound 366], the melting point lay in the range of 223 to 225 °C. Also, in the series with HCV replicon (read-out: Replicon IC5Os), the IC50 was under 0.5 µM.
In turn, `CCCS(=O)(=O)Nc1ccc(-c2c(C#N)c3ccc(C(F)(F)F)cc3n2CC)cc1` [Compound 367] displayed a melting point of 225 to 227 °C. The IC50 in the series on HCV replicon (read-out: Replicon IC5Os) lay within 0.5 to 2 µM.
For `CCn1c(-c2ccc(CNS(=O)(=O)CCN3CCOCC3)cc2)c(C#N)c2ccc(OC)cc21` [Compound 668, 2-morpholin-4-yl-ethanesulfonic acid [4-(3-cyano-1-ethyl-6-methoxy-1H-indol-2-yl)-phenyl]methyl amide], the melting point was 171 to 174 °C.
